Laboratory results: US8003660B2, “Modulators of muscarinic receptors” (Vertex Pharmaceuticals Incorporated, priority 2006, dated 2011)

Columns and labels:
Format in all cases: cell-based
[1] = target: T1, M2 muscarinic receptor (Homo sapiens, UniProt P08172); experiment: Functional mobilization of intracellular calcium (FLIPR) in CHO cells expressing M2; details: for M2 Activity: CHO cells expressing M2, FLIPR calcium assay; for Emax: CHO, 100% efficacy = maximum response obtained with the Carbachol control
T1 construct: expressed in transfected cells; host or cells: CHO (M2-CHO)
T1 sequence (P08172 1-466): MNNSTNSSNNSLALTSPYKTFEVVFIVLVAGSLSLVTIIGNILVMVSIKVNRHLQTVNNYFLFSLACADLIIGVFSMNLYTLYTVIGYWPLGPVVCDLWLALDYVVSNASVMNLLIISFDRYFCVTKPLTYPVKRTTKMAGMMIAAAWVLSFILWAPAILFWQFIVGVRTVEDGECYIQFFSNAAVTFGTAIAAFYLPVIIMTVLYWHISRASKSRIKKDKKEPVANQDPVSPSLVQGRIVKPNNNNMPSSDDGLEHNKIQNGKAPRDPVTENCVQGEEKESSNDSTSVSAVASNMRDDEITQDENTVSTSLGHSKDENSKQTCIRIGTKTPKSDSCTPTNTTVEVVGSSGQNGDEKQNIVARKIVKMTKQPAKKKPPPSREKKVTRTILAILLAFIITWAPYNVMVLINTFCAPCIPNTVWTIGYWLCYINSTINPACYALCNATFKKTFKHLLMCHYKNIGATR
Summary of the method: (§1)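 Recombinant CHO cells loaded with Fluo-3 AM or Calcium 3 dye in pH 7.4 buffer containing 1 mM probenecid, with 0.5% final DMSO. For agonism, compound is added directly. For inhibition, it is preincubated 15 min, or co-applied, before carbachol at EC80. FLIPR fluorescence (ex 488, em 540 nm) is recorded for 60 s.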

[2] = target: T2, M3 muscarinic receptor (Homo sapiens, UniProt P20309); experiment: Functional mobilization of intracellular calcium (FLIPR) in CHO cells expressing M3; details: for M3 Activity: CHO cells expressing M3, FLIPR calcium assay; for Emax: CHO, 100% efficacy = maximum response obtained with the Carbachol control
T2 construct: expressed in transfected cells; host or cells: CHO (M3-CHO)
Summary of the method: as §1

[3] = target: T3, M1 muscarinic receptor (Homo sapiens, UniProt P11229); experiment: Functional mobilization of intracellular calcium (FLIPR) in CHO cells expressing M1; details: for M1 Activity: CHO cells expressing M1, FLIPR calcium assay; for Emax: CHO, 100% efficacy = maximum response obtained with the Carbachol control
T3 construct: expressed in transfected cells; host or cells: CHO (M1-CHO)
T3 sequence (P11229 1-460): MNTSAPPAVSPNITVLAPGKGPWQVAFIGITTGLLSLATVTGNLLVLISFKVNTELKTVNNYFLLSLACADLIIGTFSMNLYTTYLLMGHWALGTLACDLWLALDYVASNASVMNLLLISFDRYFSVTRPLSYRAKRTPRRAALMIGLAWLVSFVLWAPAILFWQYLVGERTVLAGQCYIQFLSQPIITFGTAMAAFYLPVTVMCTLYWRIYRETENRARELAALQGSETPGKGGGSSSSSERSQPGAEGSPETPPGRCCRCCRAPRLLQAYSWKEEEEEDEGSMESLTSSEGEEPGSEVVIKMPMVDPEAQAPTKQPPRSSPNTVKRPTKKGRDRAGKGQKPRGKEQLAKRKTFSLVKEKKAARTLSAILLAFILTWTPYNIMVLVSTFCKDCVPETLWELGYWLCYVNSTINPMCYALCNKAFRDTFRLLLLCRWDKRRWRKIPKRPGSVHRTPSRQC
Summary of the method: as §1

[4] = target: T4, M4 muscarinic receptor (Homo sapiens, UniProt P08173); experiment: Functional mobilization of intracellular calcium (FLIPR) in CHO cells expressing M4; details: for M4 Activity: CHO cells expressing M4, FLIPR calcium assay; for Emax: CHO, 100% efficacy = maximum response obtained with the Carbachol control
T4 construct: expressed in transfected cells; host or cells: CHO (M4-CHO)
T4 sequence (P08173 1-479): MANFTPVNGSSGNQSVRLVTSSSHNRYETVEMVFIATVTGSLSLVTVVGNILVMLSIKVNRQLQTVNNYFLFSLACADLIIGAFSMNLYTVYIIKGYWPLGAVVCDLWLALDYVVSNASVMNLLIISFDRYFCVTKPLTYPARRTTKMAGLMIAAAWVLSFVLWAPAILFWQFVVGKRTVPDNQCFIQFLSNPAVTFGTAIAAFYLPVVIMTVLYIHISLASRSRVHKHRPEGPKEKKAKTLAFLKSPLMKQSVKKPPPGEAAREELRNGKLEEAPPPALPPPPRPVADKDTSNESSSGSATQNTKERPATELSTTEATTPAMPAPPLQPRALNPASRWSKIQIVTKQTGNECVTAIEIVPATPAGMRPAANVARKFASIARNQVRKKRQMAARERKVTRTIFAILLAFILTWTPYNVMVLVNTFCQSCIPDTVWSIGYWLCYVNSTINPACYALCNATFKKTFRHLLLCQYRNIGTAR
Summary of the method: as §1

T2 sequence (P20309 whole entry): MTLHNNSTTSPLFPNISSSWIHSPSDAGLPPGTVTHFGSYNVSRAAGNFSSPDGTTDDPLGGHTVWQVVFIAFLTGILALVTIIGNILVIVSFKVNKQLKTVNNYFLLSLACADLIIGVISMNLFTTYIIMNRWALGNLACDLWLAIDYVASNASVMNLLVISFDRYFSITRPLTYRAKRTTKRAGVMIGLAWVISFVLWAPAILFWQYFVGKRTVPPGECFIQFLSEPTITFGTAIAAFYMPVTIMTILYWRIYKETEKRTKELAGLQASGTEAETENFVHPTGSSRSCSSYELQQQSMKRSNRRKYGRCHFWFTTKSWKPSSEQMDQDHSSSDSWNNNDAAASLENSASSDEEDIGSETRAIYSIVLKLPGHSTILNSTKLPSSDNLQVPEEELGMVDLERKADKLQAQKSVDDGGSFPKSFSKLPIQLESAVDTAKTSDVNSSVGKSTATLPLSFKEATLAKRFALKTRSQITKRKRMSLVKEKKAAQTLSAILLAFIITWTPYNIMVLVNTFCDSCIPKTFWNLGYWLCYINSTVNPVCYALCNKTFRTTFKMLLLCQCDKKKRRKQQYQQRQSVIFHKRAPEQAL

SMILES	M2 Activity [1]	Emax [1]	M3 Activity [2]	Emax [2]	M1 Activity [3]	Emax [3]	M4 Activity [4]	Emax [4]
CC(C)(C)OC(=O)N1CCC2(CC1)C[C@H](NC(=O)N1CCCC1)c1ccccc12 [compound 276]	+ (activity was measured to be greater than 5.0 μM)	< 25%	+ (activity was measured to be greater than 5.0 μM)	< 25%	+ (activity was measured to be greater than 5.0 μM)	< 25%	+ (activity was measured to be greater than 5.0 μM)	< 25%
CC(=O)N[C@H]1CC2(CCN(CCC(C)C)CC2)c2ccccc21 [compound 277]	+ (activity was measured to be greater than 5.0 μM)	< 25%	+ (activity was measured to be greater than 5.0 μM)	< 25%	++ (activity was measured to be from 2.0 μM to 5.0 μM)	25 to 100%	+++ (activity was measured to be less than 2.0 μM)	25 to 100%
CC(C)(C)OC(=O)N1CCC2(CC1)C[C@H](NC(=O)C1CC1)c1ccccc12 [compound 279]	+ (activity was measured to be greater than 5.0 μM)	< 25%	+ (activity was measured to be greater than 5.0 μM)	< 25%	+ (activity was measured to be greater than 5.0 μM)	< 25%	+ (activity was measured to be greater than 5.0 μM)	< 25%
CC(=O)N[C@@H]1CCC2(CCN(C(=O)OC(C)(C)C)CC2)c2ccccc21 [compound 280]	+ (activity was measured to be greater than 5.0 μM)	< 25%	+ (activity was measured to be greater than 5.0 μM)	< 25%	+ (activity was measured to be greater than 5.0 μM)	< 25%	+ (activity was measured to be greater than 5.0 μM)	< 25%
CC(=O)N[C@H]1CC2(CCN(CCC(C)CCC=C(C)C)CC2)c2ccccc21 (stereo partly drawn) [compound 282]	+ (activity was measured to be greater than 5.0 μM)	< 25%	+ (activity was measured to be greater than 5.0 μM)	< 25%	+++ (activity was measured to be less than 2.0 μM)	25 to 100%	+ (activity was measured to be greater than 5.0 μM)	< 25%
Cc1ccc2c(c1)C(=O)CC21CCN(CCC(C)(C)C)CC1 [compound 288]	+ (activity was measured to be greater than 5.0 μM)	< 25%	+ (activity was measured to be greater than 5.0 μM)	< 25%	+ (activity was measured to be greater than 5.0 μM)	25 to 100%	++ (activity was measured to be from 2.0 μM to 5.0 μM)	25 to 100%
CC(=O)N[C@H]1CC2(CCN(CC(=O)N(C)C)CC2)c2ccccc21 [compound 289]	+ (activity was measured to be greater than 5.0 μM)	< 25%	+ (activity was measured to be greater than 5.0 μM)	< 25%	+ (activity was measured to be greater than 5.0 μM)	< 25%	+ (activity was measured to be greater than 5.0 μM)	< 25%
CC(=O)NC1CC2(CCN(C(C)C(C)C)CC2)c2ccccc21 (stereo not drawn) [compound 290]	+ (activity was measured to be greater than 5.0 μM)	< 25%	+ (activity was measured to be greater than 5.0 μM)	< 25%	+ (activity was measured to be greater than 5.0 μM)	25 to 100%	+ (activity was measured to be greater than 5.0 μM)	25 to 100%
CC(C)(C)CCN1CCC2(CC1)C[C@H](NC(=O)c1ccoc1)c1ccccc12 [compound 292]	+ (activity was measured to be greater than 5.0 μM)	< 25%	+ (activity was measured to be greater than 5.0 μM)	< 25%	+ (activity was measured to be greater than 5.0 μM)	< 25%	+ (activity was measured to be greater than 5.0 μM)	< 25%
CC(C)CCN1CCC2(CC1)C[C@H](NC(=O)N(C)C)c1ccccc12 [compound 293]	+ (activity was measured to be greater than 5.0 μM)	< 25%	+ (activity was measured to be greater than 5.0 μM)	< 25%	+ (activity was measured to be greater than 5.0 μM)	< 25%	+ (activity was measured to be greater than 5.0 μM)	< 25%
CC(C)CCN1CCC2(CC1)C[C@H](NC(=O)N1CCCC1)c1ccccc12 [compound 294]	+ (activity was measured to be greater than 5.0 μM)	< 25%	+ (activity was measured to be greater than 5.0 μM)	< 25%	+ (activity was measured to be greater than 5.0 μM)	< 25%	+ (activity was measured to be greater than 5.0 μM)	< 25%
CC(C)(C)OC(=O)N1CCC2(CC1)C[C@H](NC(=O)C1CCCC1)c1ccccc12 [compound 295]	+ (activity was measured to be greater than 5.0 μM)	< 25%	+ (activity was measured to be greater than 5.0 μM)	< 25%	+ (activity was measured to be greater than 5.0 μM)	< 25%	+ (activity was measured to be greater than 5.0 μM)	< 25%
CN(C)C(=O)N[C@H]1CC2(CCN(CCC(C)(C)C)CC2)c2ccccc21 [compound 297]	+ (activity was measured to be greater than 5.0 μM)	< 25%	+ (activity was measured to be greater than 5.0 μM)	< 25%	+ (activity was measured to be greater than 5.0 μM)	< 25%	+ (activity was measured to be greater than 5.0 μM)	< 25%
CN(C)C(=O)N[C@H]1CC2(CCN(C(=O)OC(C)(C)C)CC2)c2ccccc21 [compound 298]	+ (activity was measured to be greater than 5.0 μM)	< 25%	+ (activity was measured to be greater than 5.0 μM)	< 25%	+ (activity was measured to be greater than 5.0 μM)	< 25%	+ (activity was measured to be greater than 5.0 μM)	< 25%
CC(C)CCN1CCC2(CC1)C[C@H](NC(=O)C1CCCC1)c1ccccc12 [compound 299]	+ (activity was measured to be greater than 5.0 μM)	< 25%	+ (activity was measured to be greater than 5.0 μM)	< 25%	+ (activity was measured to be greater than 5.0 μM)	< 25%	+ (activity was measured to be greater than 5.0 μM)	< 25%
